The values that follow are results of earlier work, collected in publication PMC12593371, “Whole-Body Disposition and Metabolism of [^14C]-2,4,4′-Trichlorobiphenyl (PCB28) Following Lung Administration in Rats” (Environmental Science & Technology, 2025).

SMILES strings stand for the structures.

On the set-up of the data set: method as in our prior study (number not given). Conditions: acute inhalation exposure to a PCB mixture, estimated dose 40 μg/rat; ref our prior study (number not given); cited from earlier work.

With `Clc1cccc(-c2cccc(Cl)c2)c1` [PCB11], the serum elimination half-life is 11.5 h.
